What all share (test): Antibacterial assay, microtitration MIC (Test A)
What all share (assay type): cell-based

One assay relates to S pyogenes C203. The following applies: Gram Positive Bacteria; strain C203; read-out: Minimum Inhibitory Concentrations S pyogenes C203. The protocol:
(§1) The compounds of the present invention were tested against an assortment of Gram-negative and Gram-positive organisms using standard microtitration techniques (Cohen et. al., Antimicrob., 1985;28:766; Heifetz, et. al., Antimicrob., 1974;6:124). The results of the evaluation are shown in Tables 1A and B, wherein “-” means no data.

A further assay deals with E. faecalis MGH-2. The following applies: Enterococcus faecalis, MGH2, Gram Positive Bacteria; strain MGH-2; read-out: Minimum Inhibitory Concentrations E. faecalis MGH-2. The protocol: as §1
In a further assay the test system is S. pneumo SV-1. The following applies: Gram Positive Bacteria; strain SV-1; read-out: Minimum Inhibitory Concentrations S. pneumo SV-1. The protocol:
as §1

Values after ≈ are worked out from the molar mass of the structure shown.

With `Nc1c(F)c(N2CCC(C(O)C(F)(F)F)C2)c(F)c2c1c(=O)c(C(=O)O)cn2C1CC1` (stereo not drawn) [drawing 365], the figures for the MIC with S pyogenes C203, in the assay on E. faecalis MGH-2 and in the assay on S. pneumo SV-1 were 0.5 µg/mL (≈ 1.12 µM), 0.06 µg/mL (≈ 0.134 µM) and 0.125 µg/mL (≈ 0.279 µM), respectively.

Take `COc1c(N2CCC(C(O)C(F)(F)F)C2)c(F)cc2c(=O)c(C(=O)O)cn(C3CC3)c12` (stereo not drawn) [drawing 362]: the MIC came out at 0.125 µg/mL (≈ 0.281 µM) with S pyogenes C203, 0.06 µg/mL (≈ 0.135 µM) in the assay on E. faecalis MGH-2 and 0.06 µg/mL (≈ 0.135 µM) with S. pneumo SV-1.

As to `CC(O)(CO)C1CCN(c2c(F)cc3c(=O)c(C(=O)O)cn(C4CC4)c3c2Cl)C1` (stereo not drawn) [drawing 372], the MIC in the assay on S pyogenes C203, in the assay on E. faecalis MGH-2 and with S. pneumo SV-1 was 0.25 µg/mL (≈ 0.588 µM) throughout.

Take `Nc1nc(-n2cc(C(=O)O)c(=O)c3cc(F)c(N4CCC(C(O)C(F)F)C4)c(Cl)c32)c(F)cc1F` (stereo not drawn) [drawing 351]: the MIC with S pyogenes C203 was determined as 0.125 µg/mL (≈ 0.241 µM); in the assay with E. faecalis MGH-2 it was 0.25 µg/mL (≈ 0.482 µM); with S. pneumo SV-1, 0.06 µg/mL (≈ 0.116 µM).

For the compound `CC(=O)O[C@@H]1CC[C@H]2CN(c3c(F)cc4c(=O)c(C(=O)O)cn(-c5nc(N)c(F)cc5F)c4c3Cl)C[C@H]21` [drawing 456], the figures for the MIC in the assay with S pyogenes C203, in the assay with E. faecalis MGH-2 and in the assay on S. pneumo SV-1 were 0.5 µg/mL (≈ 0.931 µM), 0.5 µg/mL (≈ 0.931 µM) and 0.125 µg/mL (≈ 0.233 µM), respectively.

As to `O=C(O)c1cn(C2CC2)c2c(Cl)c(N3CCC(C(O)C(F)F)C3)c(F)cc2c1=O` (stereo not drawn) [drawing 350], the MIC in the assay with S pyogenes C203 amounted to 0.25 µg/mL (≈ 0.58 µM); in the assay with E. faecalis MGH-2 it was 0.125 µg/mL (≈ 0.29 µM); in the assay on S. pneumo SV-1, 0.125 µg/mL (≈ 0.29 µM).

Consider `COc1c(N2C[C@@H]3CC[C@@H](O)[C@@H]3C2)c(F)cc2c(=O)c(C(=O)O)cn(C3CC3)c12` [drawing 454], for which the MIC with S pyogenes C203, in the assay with E. faecalis MGH-2 and in the assay with S. pneumo SV-1 was 0.125 µg/mL (≈ 0.311 µM) each time.

`O=C(O)c1cn(C2CC2)c2c(Cl)c(N3CCC(C(O)CO)C3)c(F)cc2c1=O` (stereo not drawn) [drawing 357]: the MIC with S pyogenes C203 amounted to 0.03 µg/mL (≈ 0.073 µM); in the assay with E. faecalis MGH-2 it was 0.06 µg/mL (≈ 0.146 µM); with S. pneumo SV-1, 0.06 µg/mL (≈ 0.146 µM).

Consider `COc1c(N2CCC(C)(C(O)CC(F)(F)F)C2)c(F)cc2c(=O)c(C(=O)O)cn(C3CC3)c12` (stereo not drawn) [drawing 376], for which the MIC stood at 0.25 µg/mL (≈ 0.529 µM) in the assay with S pyogenes C203, 0.125 µg/mL (≈ 0.265 µM) in the assay on E. faecalis MGH-2 and 0.125 µg/mL (≈ 0.265 µM) in the assay with S. pneumo SV-1.

On to `O=C(O)c1cn(C2CC2)c2c(Cl)c(N3CC(CO)C4(CC4)C3)c(F)cc2c1=O` (stereo not drawn) [drawing 430], for which the results for the MIC with S pyogenes C203, with E. faecalis MGH-2 and with S. pneumo SV-1 were 0.06 µg/mL (≈ 0.147 µM), 0.06 µg/mL (≈ 0.147 µM) and 0.03 µg/mL (≈ 0.0737 µM), respectively.

Regarding `Nc1nc(-n2cc(C(=O)O)c(=O)c3cc(F)c(N4CCC(C(O)CO)C4)cc32)c(F)cc1F` (stereo not drawn) [drawing 358], the results for the MIC with S pyogenes C203, in the assay on E. faecalis MGH-2 and in the assay with S. pneumo SV-1 were 0.125 µg/mL (≈ 0.269 µM), 0.125 µg/mL (≈ 0.269 µM) and 0.06 µg/mL (≈ 0.129 µM), respectively.

Regarding `O=C(O)c1cn(C2CC2)c2c(Cl)c(N3CCC(C(O)C4(CO)CC4)C3)c(F)cc2c1=O` (stereo not drawn) [drawing 354], the MIC in the assay with S pyogenes C203, in the assay with E. faecalis MGH-2 and in the assay with S. pneumo SV-1 was 0.125 µg/mL (≈ 0.277 µM) each time.

Regarding `Cc1c(N2CCC(C(O)(CO)C(F)(F)F)C2)c(F)cc2c(=O)c(C(=O)O)cn(C3CC3)c12` (stereo not drawn) [drawing 371], the MIC with S pyogenes C203, in the assay with E. faecalis MGH-2 and with S. pneumo SV-1 was 0.25 µg/mL (≈ 0.545 µM) each time.

As to `Cc1c(N2CCC(C(O)CO)C2)c(F)cc2c(=O)c(C(=O)O)cn(C3CC3)c12` (stereo not drawn) [drawing 356], the results for the MIC in the assay on S pyogenes C203, in the assay on E. faecalis MGH-2 and in the assay with S. pneumo SV-1 were 1 µg/mL (≈ 2.56 µM), 2 µg/mL (≈ 5.12 µM) and 1 µg/mL (≈ 2.56 µM), respectively.

Turning to `COc1c(N2CCC(C(C)O)C2)c(F)cc2c(=O)c(C(=O)O)cn(C3CC3)c12` (stereo not drawn) [drawing 345], the MIC in the assay on S pyogenes C203 is 0.125 µg/mL (≈ 0.32 µM); in the assay on E. faecalis MGH-2, 0.125 µg/mL (≈ 0.32 µM); with S. pneumo SV-1 it was 0.06 µg/mL (≈ 0.154 µM).

With `O=C(O)c1cn(C2CC2)c2nc(N3CCC(C(O)C(F)F)C3)c(F)cc2c1=O` (stereo not drawn) [drawing 352], the MIC with S pyogenes C203 is 0.25 µg/mL (≈ 0.629 µM); in the assay with E. faecalis MGH-2 it was 0.125 µg/mL (≈ 0.315 µM); with S. pneumo SV-1, 0.25 µg/mL (≈ 0.629 µM).

Regarding `Nc1nc(-n2cc(C(=O)O)c(=O)c3cc(F)c(N4C[C@@H]5CC[C@@H](O)[C@@H]5C4)c(Cl)c32)c(F)cc1F` [drawing 455], the MIC in the assay on S pyogenes C203 worked out at 0.25 µg/mL (≈ 0.505 µM); with E. faecalis MGH-2, 0.25 µg/mL (≈ 0.505 µM); in the assay with S. pneumo SV-1, 0.125 µg/mL (≈ 0.253 µM).

For `Nc1nc(-n2cc(C(=O)O)c(=O)c3cc(F)c(N4CCC(C(O)CO)C4)c(Cl)c32)c(F)cc1F` (stereo not drawn) [drawing 359], the MIC with S pyogenes C203, in the assay with E. faecalis MGH-2 and in the assay on S. pneumo SV-1 was 0.5 µg/mL (≈ 1 µM) throughout.
